pIC50: −log10 of the molar value.
Assays:
Ba/F3 ERBB2 YVMA = Ba/F3 ERBB2 YVMA (Homo sapiens, UniProt P04626, DUP772-775, cells depend on it); assay: Cell viability assay (CellTiter Glo), Ba/F3 cells engineered to express ERBB2 YVMA; assay type: cell-based, mouse; conditions: Ba/F3 cells expressing human ERBB2 YVMA mutant, 72 hours, read-out: Ba/F3 ERBB2 YVMA, IC50
Summary of the method: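 Ba/F3 cells (IL-3-independent via stable retroviral human ERBB2 YVMA) seeded 3000/well and given compound from about 10 μM to 0.51 nM in three-fold steps, DMSO ≤0.1%, 72 h at 37° C. Viability by CellTiter Glo luminescence, normalized to DMSO and media-only controls. Sigmoidal nonlinear fit.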

[1] = biological target: T1, phosphorylated EGFR (pEGFR) (Homo sapiens, UniProt P00533); assay: Detection of phosphorylated EGFR (pEGFR) by AlphaLISA in EGF-stimulated A431 cells; assay type: cell-based; conditions: A431 cells (10% FBS), 4 hours incubation, EGF 30 ng/mL for 10 minutes
T1 construct: performed to measure phosphorylated EGFR levels using A431 cells (10% FBS); endogenous in cells; host or cells: A431
Summary of the method: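 pEGFR was quantified by AlphaLISA in lysates of A431 cells (10% FBS) given a 10 min pulse of EGF at 30 ng/mL after 4 h compound exposure at 37 °C. IC50 came from a four-parameter fit of % inhibition between DMSO and staurosporine controls.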

[2] = biological target: T2, phosphorylated ERBB2 (pERBB2) (Homo sapiens, UniProt P04626); assay: Detection of phosphorylated ERBB2 (pERBB2) by ELISA in BT-474 cells; assay type: cell-based; conditions: four hour incubation
T2 construct: endogenous in cells; host or cells: BT-474
Summary of the method: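 BT-474 cells were treated with compounds (fourfold dilutions, 10 μM to 0.01 nM final) for 4 h at 37 °C, then lysed. pERBB2 in lysates was quantified by ELISA with an HRP anti-phosphotyrosine detection antibody and TMB read at 450 nm; % relative activity was normalized to no-cell and 0.1% DMSO controls.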

T2 sequence (P04626 23-1255): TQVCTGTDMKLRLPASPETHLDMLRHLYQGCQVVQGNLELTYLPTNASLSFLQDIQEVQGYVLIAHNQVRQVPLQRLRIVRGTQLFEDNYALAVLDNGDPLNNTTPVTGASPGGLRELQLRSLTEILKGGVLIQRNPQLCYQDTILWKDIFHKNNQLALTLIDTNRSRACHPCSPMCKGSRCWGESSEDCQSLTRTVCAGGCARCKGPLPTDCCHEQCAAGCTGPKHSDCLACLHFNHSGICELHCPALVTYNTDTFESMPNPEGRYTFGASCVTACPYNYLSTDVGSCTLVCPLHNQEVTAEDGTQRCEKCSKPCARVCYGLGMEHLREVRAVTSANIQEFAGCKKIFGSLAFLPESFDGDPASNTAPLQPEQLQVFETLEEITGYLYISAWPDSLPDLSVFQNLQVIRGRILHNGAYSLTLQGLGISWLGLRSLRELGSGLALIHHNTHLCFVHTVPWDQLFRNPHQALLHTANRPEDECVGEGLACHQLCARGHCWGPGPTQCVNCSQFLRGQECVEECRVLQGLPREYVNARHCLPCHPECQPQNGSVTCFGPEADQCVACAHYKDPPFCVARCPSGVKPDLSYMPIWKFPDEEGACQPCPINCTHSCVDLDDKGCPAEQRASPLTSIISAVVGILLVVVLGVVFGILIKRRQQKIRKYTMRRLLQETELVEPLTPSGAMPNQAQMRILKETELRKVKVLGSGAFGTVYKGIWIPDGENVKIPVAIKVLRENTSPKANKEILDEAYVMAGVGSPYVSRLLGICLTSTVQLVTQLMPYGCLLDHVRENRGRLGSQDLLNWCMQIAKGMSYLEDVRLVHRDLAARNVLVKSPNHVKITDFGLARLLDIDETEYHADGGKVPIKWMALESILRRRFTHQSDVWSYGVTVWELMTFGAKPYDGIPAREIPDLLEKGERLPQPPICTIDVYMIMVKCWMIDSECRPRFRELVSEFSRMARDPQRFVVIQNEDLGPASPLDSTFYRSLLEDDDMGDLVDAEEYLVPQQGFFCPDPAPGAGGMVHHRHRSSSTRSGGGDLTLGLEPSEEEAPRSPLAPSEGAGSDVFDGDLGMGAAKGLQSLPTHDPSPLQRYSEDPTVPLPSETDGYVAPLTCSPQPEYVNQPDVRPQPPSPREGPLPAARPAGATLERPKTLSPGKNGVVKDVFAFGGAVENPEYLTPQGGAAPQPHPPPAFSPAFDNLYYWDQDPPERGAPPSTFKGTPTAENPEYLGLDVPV
T1 sequence (P00533 25-1210): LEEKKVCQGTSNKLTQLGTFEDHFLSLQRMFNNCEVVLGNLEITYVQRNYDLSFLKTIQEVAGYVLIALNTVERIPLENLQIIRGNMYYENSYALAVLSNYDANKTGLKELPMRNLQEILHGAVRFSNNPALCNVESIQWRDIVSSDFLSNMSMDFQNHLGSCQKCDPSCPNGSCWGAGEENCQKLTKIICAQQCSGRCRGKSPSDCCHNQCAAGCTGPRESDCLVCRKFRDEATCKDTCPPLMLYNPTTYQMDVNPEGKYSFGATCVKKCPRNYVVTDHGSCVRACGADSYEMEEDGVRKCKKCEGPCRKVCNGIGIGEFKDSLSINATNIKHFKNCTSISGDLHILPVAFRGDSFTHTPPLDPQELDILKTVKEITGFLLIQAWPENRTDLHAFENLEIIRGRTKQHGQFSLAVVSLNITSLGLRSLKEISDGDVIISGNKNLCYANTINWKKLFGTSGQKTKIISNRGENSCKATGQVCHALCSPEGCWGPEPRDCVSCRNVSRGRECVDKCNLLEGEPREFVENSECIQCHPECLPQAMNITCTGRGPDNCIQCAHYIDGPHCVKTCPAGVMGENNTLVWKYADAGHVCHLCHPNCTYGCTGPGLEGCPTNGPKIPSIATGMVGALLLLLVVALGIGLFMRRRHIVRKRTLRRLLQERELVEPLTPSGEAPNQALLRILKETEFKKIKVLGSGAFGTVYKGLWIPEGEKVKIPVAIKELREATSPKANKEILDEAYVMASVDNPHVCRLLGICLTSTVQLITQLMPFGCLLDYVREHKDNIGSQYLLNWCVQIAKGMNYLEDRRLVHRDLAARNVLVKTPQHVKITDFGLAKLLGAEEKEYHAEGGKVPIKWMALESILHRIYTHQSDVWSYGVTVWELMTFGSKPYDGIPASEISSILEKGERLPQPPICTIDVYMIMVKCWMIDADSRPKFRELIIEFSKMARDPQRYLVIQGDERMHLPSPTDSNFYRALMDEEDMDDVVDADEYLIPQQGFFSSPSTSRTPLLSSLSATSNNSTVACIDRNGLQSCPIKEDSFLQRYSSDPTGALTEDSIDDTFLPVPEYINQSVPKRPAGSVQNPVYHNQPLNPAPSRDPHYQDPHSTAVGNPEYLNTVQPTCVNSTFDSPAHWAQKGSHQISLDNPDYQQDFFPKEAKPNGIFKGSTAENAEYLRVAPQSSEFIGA
Sequence of Ba/F3 ERBB2 YVMA (P04626 with tags, fused parts or gaps DUP772-775): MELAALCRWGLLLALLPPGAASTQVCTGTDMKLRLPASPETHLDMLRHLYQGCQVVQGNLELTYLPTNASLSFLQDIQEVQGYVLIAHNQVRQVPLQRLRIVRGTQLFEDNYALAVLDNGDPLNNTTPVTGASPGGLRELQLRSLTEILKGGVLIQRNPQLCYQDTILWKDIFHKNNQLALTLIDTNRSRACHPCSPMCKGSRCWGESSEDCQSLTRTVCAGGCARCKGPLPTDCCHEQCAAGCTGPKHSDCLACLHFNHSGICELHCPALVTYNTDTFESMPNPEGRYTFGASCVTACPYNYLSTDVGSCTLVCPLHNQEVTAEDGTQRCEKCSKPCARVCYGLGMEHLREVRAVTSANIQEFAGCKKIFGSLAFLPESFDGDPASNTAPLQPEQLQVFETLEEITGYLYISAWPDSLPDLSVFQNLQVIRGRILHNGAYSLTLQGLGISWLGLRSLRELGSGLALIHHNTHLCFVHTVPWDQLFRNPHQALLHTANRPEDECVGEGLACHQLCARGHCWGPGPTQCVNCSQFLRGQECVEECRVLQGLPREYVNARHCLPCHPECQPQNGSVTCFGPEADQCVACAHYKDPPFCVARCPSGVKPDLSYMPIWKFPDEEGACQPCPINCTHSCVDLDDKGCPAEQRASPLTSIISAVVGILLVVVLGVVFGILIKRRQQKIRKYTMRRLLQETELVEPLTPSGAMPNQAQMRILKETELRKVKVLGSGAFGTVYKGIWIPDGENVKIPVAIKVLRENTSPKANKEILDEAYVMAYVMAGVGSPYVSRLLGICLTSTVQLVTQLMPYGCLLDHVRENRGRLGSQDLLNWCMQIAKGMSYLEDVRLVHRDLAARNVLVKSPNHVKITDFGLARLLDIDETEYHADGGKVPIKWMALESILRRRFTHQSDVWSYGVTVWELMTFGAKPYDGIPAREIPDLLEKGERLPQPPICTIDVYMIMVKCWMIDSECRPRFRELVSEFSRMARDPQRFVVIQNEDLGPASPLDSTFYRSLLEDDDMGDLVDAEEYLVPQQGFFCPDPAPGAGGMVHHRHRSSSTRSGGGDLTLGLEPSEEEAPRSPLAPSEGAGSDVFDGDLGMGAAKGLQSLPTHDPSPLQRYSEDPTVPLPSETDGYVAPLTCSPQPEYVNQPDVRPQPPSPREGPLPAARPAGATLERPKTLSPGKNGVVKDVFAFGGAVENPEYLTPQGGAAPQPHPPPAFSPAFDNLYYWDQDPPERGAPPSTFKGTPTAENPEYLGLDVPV

Structure (SMILES)	GI50 (Ba/F3 ERBB2 YVMA)	pIC50 [1]	pIC50 [2]
Cc1cc(Nc2ncnc3ccc4c(c23)OC[C@H]2CN4CCN2C(=O)/C=C/[C@@H](C)N(C)C)c(F)cc1Oc1ccn2ncnc2c1 [Compound 90, (4R,E)-1-((3R)-13-((4-([1,2,4]triazolo[1,5-a]pyridin-7-yloxy)-2-fluoro-5-methylphenyl)amino)-2,3,5,6-tetrahydro-4H-3,7-methano[1,4,7]oxadiazonino[2,3-f]quinazolin-4-yl)-4-(dimethylamino)pent-2-en-1-one]	28.7 nM	< 5.00	7.30
Cc1cc(Nc2ncnc3cnc4c(c23)OC[C@H]2CN(C)CCN42)ccc1Oc1cc2ncn(C)c2cn1 [Compound 128, (R)-8-methyl-N-(3-methyl-4-((3-methyl-3H-imidazo[4,5-c]pyridin-6-yl)oxy)phenyl)-6,6a,7,8,9,10-hexahydropyrazino[1,2-d]pyrimido[5′,4′:4,5]pyrido[3,2-b][1,4]oxazin-4-amine]	211 nM	< 5.00	7.45
CN(C)C/C=C/C(=O)N1CCN2c3ccc4ncnc(Nc5ccc(Oc6ccn7ncnc7c6)cc5F)c4c3OC[C@H]2C1 [Compound 119, (R,E)-1-(4-((4-([1,2,4]triazolo[1,5-a]pyridin-7-yloxy)-2-fluorophenyl)amino)-6a,7,9,10-tetrahydropyrazino[1′,2′:4,5][1,4]oxazino[2,3-f]quinazolin-8(6H)-yl)-4-(dimethylamino)but-2-en-1-one]	11.7 nM	5.71	7.54
